Results taken from US6358885B1, “Substituted phenylheterocyclic herbicides” (Mississippi State University, priority 1992, dated 2002).

Columns and labels:
Experiment in all cases: Test F preemergence/postemergence greenhouse plant response rating 0 to 100
kochia = assay type: in vivo, Kochia scoparia; settings: POSTEMERGENCE, 0 to 100 scale
Summary of the method: (§1)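 Compounds in non-phytotoxic solvent were applied preemergence to sandy loam soil about one day after sowing, and postemergence to plants at the one-to-four leaf stage grown in 60:40 sandy loam/potting mix. After roughly 21 to 28 days in the greenhouse, treated plants were visually rated against untreated controls.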

lambsquarters = assay type: in vivo, Chenopodium album; settings: POSTEMERGENCE, 0 to 100 scale
Summary of the method: as §1

speedwell = assay type: in vivo, Veronica persica; settings: POSTEMERGENCE, 0 to 100 scale
Summary of the method: as §1

winter wheat = assay type: in vivo, Triticum aestivum cv. ‘Talent’; settings: POSTEMERGENCE, 0 to 100 scale
Summary of the method: as §1

green foxtail = assay type: in vivo, Setaria viridis; settings: POSTEMERGENCE, 0 to 100 scale
Summary of the method: as §1

wild mustard = assay type: in vivo, Sinapis arvensis; settings: POSTEMERGENCE, 0 to 100 scale
Summary of the method: as §1

sugar beet = assay type: in vivo, Beta vulgaris cv. ‘USl’; settings: POSTEMERGENCE, 0 to 100 scale
Summary of the method: as §1

downy brome = assay type: in vivo, Bromus tectorum; settings: POSTEMERGENCE, 0 to 100 scale
Summary of the method: as §1

galium = assay type: in vivo, Galium aparine; settings: POSTEMERGENCE, 0 to 100 scale; for Galium (1) plant response rating: stage (1) two to three leaves; for Galium (2) plant response rating: stage (2) approximately four leaves or initial tillering
Summary of the method: as §1

spring wheat = assay type: in vivo, Triticum aestivum cv. ‘ERA’; settings: POSTEMERGENCE, 0 to 100 scale
Summary of the method: as §1

chickweed = assay type: in vivo, Stellaria media; settings: POSTEMERGENCE, 0 to 100 scale
Summary of the method: as §1

wild radish = assay type: in vivo, Raphanus raphanistrum; settings: POSTEMERGENCE, 0 to 100 scale
Summary of the method: as §1

winter barley = assay type: in vivo, Hordeum vulgare cv. ‘Igri’; settings: POSTEMERGENCE, 0 to 100 scale
Summary of the method: as §1

ryegrass = assay type: in vivo, Lolium multiflorum; settings: POSTEMERGENCE, 0 to 100 scale
Summary of the method: as §1

wild oat = assay type: in vivo, Avena fatua; settings: POSTEMERGENCE, 0 to 100 scale; for Wild oat (1) plant response rating: stage (1) two to three leaves; for Wild oat (2) plant response rating: stage (2) approximately four leaves or initial tillering
Summary of the method: as §1

C#CC(C)N1C(=O)COc2cc(F)c(-c3nn4c(c3Cl)CCCC4)cc21 (centres unmarked) [Compound 50]
Kochia plant response rating (kochia; Rate 16 g/ha): 100 | Kochia plant response rating (kochia; Rate 32 g/ha): 100 | Kochia plant response rating (kochia; Rate 64 g/ha): 100 | Kochia plant response rating (kochia; Rate 125 g/ha): 100 | Lambsquarters plant response rating (lambsquarters; Rate 16 g/ha): 30 | Lambsquarters plant response rating (lambsquarters; Rate 32 g/ha): 50 | Lambsquarters plant response rating (lambsquarters; Rate 64 g/ha): 100 | Lambsquarters plant response rating (lambsquarters; Rate 125 g/ha): 100 | Persn Speedwell plant response rating (speedwell; Rate 16 g/ha): 100 | Persn Speedwell plant response rating (speedwell; Rate 32 g/ha): 100 | Persn Speedwell plant response rating (speedwell; Rate 64 g/ha): 100 | Persn Speedwell plant response rating (speedwell; Rate 125 g/ha): 100 | Wheat (Winter) plant response rating (winter wheat; Rate 16 g/ha): 0 | Wheat (Winter) plant response rating (winter wheat; Rate 32 g/ha): 0 | Wheat (Winter) plant response rating (winter wheat; Rate 64 g/ha): 0 | Wheat (Winter) plant response rating (winter wheat; Rate 125 g/ha): 0 | Green foxtail plant response rating (green foxtail; Rate 16 g/ha): 0 | Green foxtail plant response rating (green foxtail; Rate 32 g/ha): 0 | Green foxtail plant response rating (green foxtail; Rate 64 g/ha): 50 | Green foxtail plant response rating (green foxtail; Rate 125 g/ha): 50 | Wild mustard plant response rating (wild mustard; Rate 16 g/ha): 70 | Wild mustard plant response rating (wild mustard; Rate 32 g/ha): 70 | Wild mustard plant response rating (wild mustard; Rate 64 g/ha): 100 | Wild mustard plant response rating (wild mustard; Rate 125 g/ha): 100 | Sugar beet plant response rating (sugar beet; Rate 16 g/ha): 100 | Sugar beet plant response rating (sugar beet; Rate 32 g/ha): 100 | Sugar beet plant response rating (sugar beet; Rate 64 g/ha): 100 | Sugar beet plant response rating (sugar beet; Rate 125 g/ha): 100 | Downy brome plant response rating (downy brome; Rate 16 g/ha): 0 | Downy brome plant response rating (downy brome; Rate 32 g/ha): 0 | Downy brome plant response rating (downy brome; Rate 64 g/ha): 0 | Downy brome plant response rating (downy brome; Rate 125 g/ha): 0 | Galium (1) plant response rating (galium; Rate 16 g/ha): 100 | Galium (2) plant response rating (galium; Rate 16 g/ha): 100 | Galium (1) plant response rating (galium; Rate 32 g/ha): 100 | Galium (2) plant response rating (galium; Rate 32 g/ha): 100 | Galium (1) plant response rating (galium; Rate 64 g/ha): 100 | Galium (2) plant response rating (galium; Rate 64 g/ha): 100 | Galium (1) plant response rating (galium; Rate 125 g/ha): 100 | Galium (2) plant response rating (galium; Rate 125 g/ha): 100 | Wheat (Spring) plant response rating (spring wheat; Rate 16 g/ha): 0 | Wheat (Spring) plant response rating (spring wheat; Rate 32 g/ha): 0 | Wheat (Spring) plant response rating (spring wheat; Rate 64 g/ha): 0 | Wheat (Spring) plant response rating (spring wheat; Rate 125 g/ha): 10 | Chickweed plant response rating (chickweed; Rate 16 g/ha): 70 | Chickweed plant response rating (chickweed; Rate 32 g/ha): 100 | Chickweed plant response rating (chickweed; Rate 64 g/ha): 100 | Chickweed plant response rating (chickweed; Rate 125 g/ha): 100 | Wild radish plant response rating (wild radish; Rate 16 g/ha): 50 | Wild radish plant response rating (wild radish; Rate 32 g/ha): 50 | Wild radish plant response rating (wild radish; Rate 64 g/ha): 55 | Wild radish plant response rating (wild radish; Rate 125 g/ha): 70 | Winter Barley plant response rating (winter barley; Rate 16 g/ha): 0 | Winter Barley plant response rating (winter barley; Rate 32 g/ha): 0 | Winter Barley plant response rating (winter barley; Rate 64 g/ha): 0 | Winter Barley plant response rating (winter barley; Rate 125 g/ha): 50 | Ryegrass plant response rating (ryegrass; Rate 16 g/ha): 0 | Ryegrass plant response rating (ryegrass; Rate 32 g/ha): 0 | Ryegrass plant response rating (ryegrass; Rate 64 g/ha): 0 | Ryegrass plant response rating (ryegrass; Rate 125 g/ha): 10 | Wild oat (1) plant response rating (wild oat; Rate 16 g/ha): 0 | Wild oat (2) plant response rating (wild oat; Rate 16 g/ha): 0 | Wild oat (1) plant response rating (wild oat; Rate 32 g/ha): 0 | Wild oat (2) plant response rating (wild oat; Rate 32 g/ha): 0 | Wild oat (1) plant response rating (wild oat; Rate 64 g/ha): 0 | Wild oat (2) plant response rating (wild oat; Rate 64 g/ha): 0 | Wild oat (1) plant response rating (wild oat; Rate 125 g/ha): 0 | Wild oat (2) plant response rating (wild oat; Rate 125 g/ha): 0
